Experimental data published in US6783949B1, “Processes for determining whether a test substance contains lipases or lipase inhibitors” (Aventis Pharma Deutschland GmbH, priority 1999, dated 2004).

Target: T1, HSL (Rattus norvegicus, UniProt P15304)
T1 construct: The partially purified HSL can be stored at −70° C. for 4 to 6 weeks; from tissue; host or cells: rat epididymal fat cells (male Wistar rats)
T1 sequence (P15304 1-768 isoform P15304-2): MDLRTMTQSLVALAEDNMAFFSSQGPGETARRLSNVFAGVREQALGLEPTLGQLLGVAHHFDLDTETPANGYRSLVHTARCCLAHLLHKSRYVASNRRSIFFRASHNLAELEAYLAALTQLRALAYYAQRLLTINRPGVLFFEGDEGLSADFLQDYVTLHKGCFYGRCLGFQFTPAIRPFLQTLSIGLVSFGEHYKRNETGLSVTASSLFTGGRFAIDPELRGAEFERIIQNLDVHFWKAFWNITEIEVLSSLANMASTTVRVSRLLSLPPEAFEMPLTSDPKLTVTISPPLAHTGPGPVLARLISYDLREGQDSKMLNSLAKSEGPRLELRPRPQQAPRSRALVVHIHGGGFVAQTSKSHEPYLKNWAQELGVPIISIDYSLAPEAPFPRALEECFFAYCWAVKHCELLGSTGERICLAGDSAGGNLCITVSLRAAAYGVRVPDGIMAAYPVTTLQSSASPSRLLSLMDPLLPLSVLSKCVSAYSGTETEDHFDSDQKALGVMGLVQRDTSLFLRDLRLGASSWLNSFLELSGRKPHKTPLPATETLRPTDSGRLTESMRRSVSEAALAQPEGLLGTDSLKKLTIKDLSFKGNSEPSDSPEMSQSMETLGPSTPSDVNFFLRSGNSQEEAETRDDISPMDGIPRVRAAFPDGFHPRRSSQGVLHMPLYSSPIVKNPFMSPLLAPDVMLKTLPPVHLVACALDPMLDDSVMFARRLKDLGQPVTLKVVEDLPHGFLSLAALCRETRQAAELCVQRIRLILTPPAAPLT
Test: Indirect NAG assay (extinction increase at 481 nm)
Assay type: biochemical
Protocol: A typical reaction is carried out at 30° C. for 60 min, for example in 1.5 ml Eppendorf vessels or 96-hole plates. […] 180 μl of the substrate solution (20 μg/ml of phosphatidylcholine, 10 μg/ml of phosphatidylinositol, 50 μg/ml of NAG in assay buffer) are added. After a preincubation for 15 min at 30° C., 20 μl of HSL in assay buffer are pipetted in and the extinction is immediately measured (see above) at 481 nm in a cuvette photometer (0.5 ml cuvette) or microtiter plate reader. After a certain incubation time, which is variable and depends on the chosen enzyme concentration and can be between 2 and 240 minutes, in this case incubation at 30° C. for 60 min, the extinction is measured again. The increase in the extinction in the yellow region, in this case at 481 nm, is a measure of the enzyme activity.
Isolated rat fat cells are obtained from epididymal fatty tissue from untreated male rats (Wistar, 220-250 g) by collagenase treatment according to published processes. The fat cells from 10 rats are washed three times by flotation with 50 ml each of homogenization buffer ([…], pH 7.4, 0.25 M sucrose, 1 mM ethylenediamine-N,N,N′,N′-tetraacetic acid (EDTA), 1 mM dithiothreitol (DTT), 10 μg/ml of leupeptin, 10 μg/ml of antipain, 20 μg/ml of pepstatin) and finally taken up in 10 ml of homogenization buffer. The fat cells are homogenized in a Teflon-in-glass homogenizer (Braun-Melsungen) by 10 strokes at 1500 rpm and 15° C. The homogenizate is centrifuged (Sorvall SM24 tubes, 5000 rpm, 10 min, 4° C.). The […] between the overlying fatty layer and the pellet is removed and the centrifugation is repeated. The […] resulting from this is centrifuged again (Sorvall SM24 tubes, 20,000 rpm, 45 min, 4° C.). […] After incubation for 60 min at 4° C. (shake at intervals of 15 min), the batch is centrifuged (Sorvall SM24 tubes, 3000 rpm, 10 min, 4° C.). The supernatant is brought to pH 5.2 by addition of glacial acetic acid and incubated at 4° C. for 30 min. […] The suspension is dialyzed overnight at 4° C. against 25 mM TRIS/HCl, pH 7.4, 50% glycerol, 1 mM DTT, and 10 μg/ml of leupeptin, pepstatin, and antipain and then applied to a hydroxylapatite column (0.1 g per 1 ml of suspension, equilibrated with 10 mM potassium phosphate, pH 7.0, 30% glycerol, 1 mM DTT). The column is washed with four volumes of equilibration buffer at a flow rate of 20 to 30 ml/h. The HSL is eluted with a volume of equilibration buffer which contains 0.5 M potassium phosphate, then dialyzed (see above) and concentrated 5 to 10 times by ultrafiltration (Amicon Diaflo PM 10 filter) at 4° C. The partially purified HSL can be stored at −70° C. for 4 to 6 weeks.
6 mg of phosphatidylcholine and 6 mg of phosphatidylinositol are dissolved in 1 ml of chloroform each. 10 mg of NAG are dissolved in 1 ml of chloroform. […] The chloroform (225 μl total volume) is completely removed by overblowing with a stream of N2. The dried substrate can be stored at 4° C. for up to three days. For the preparation of the phospholipid vesicles/micelles having intercalated NAG (on the test day), the dried substrate is taken up in 20 ml of assay buffer (25 mM TRIS/HCl, pH 7.4; 150 mM NaCl) and two ultrasonic treatments with an ultrasonic probe (Branson Sonifier type 11, standard microtip): 1st treatment setting 2, 2×1 min, in between in each case 1 min on ice; 2nd treatment setting 4, 2×1 min, in between in each case 1 min on ice. […] Before use as a substrate (within the next 2 h), the solution is additionally incubated on ice for 15 min.
The assay is carried out at 30° C. for 60 min in 1.5 ml Eppendorf vessels or 96-hole plates.

[1] = HSL 40 μg, 60 min, NAG 0.05 mg/ml
[2] = HSL 60 μg, 60 min, NAG 0.05 mg/ml
[3] = HSL 80 μg, 60 min, NAG 0.05 mg/ml

Compound: O=C(CCCCCCCCCCCNc1ccc([N+](=O)[O-])c2nonc12)OCC(O)CO (centres unmarked) [Compound (3)]
- Increase in the absorption at 481 nm (HSL 40 μg, 20 min, NAG 0.05 mg/ml): 477 ± 182 arb. units
- Increase in the absorption at 481 nm (HSL 40 μg, 30 min, NAG 0.05 mg/ml): 2249 ± 286 arb. units
- Increase in the absorption at 481 nm (HSL 40 μg, 45 min, NAG 0.05 mg/ml): 2968 ± 321 arb. units
- Absorption change, Decrease, 550 nm [1]: 91 ± 19 arb. units
- Absorption change, Increase, 481 nm [1]: 4623 ± 511 arb. units
- Increase in the absorption at 481 nm [1]: 4065 ± 399 arb. units
- Increase in the absorption at 481 nm (HSL 40 μg, 75 min, NAG 0.05 mg/ml): 4834 ± 462 arb. units
- Increase in the absorption at 481 nm (HSL 40 μg, 90 min, NAG 0.05 mg/ml): 5472 ± 813 arb. units
- Increase in the absorption at 481 nm (HSL 40 μg, 120 min, NAG 0.05 mg/ml): 5702 ± 531 arb. units
- Increase in the absorption at 481 nm (HSL 40 μg, 180 min, NAG 0.05 mg/ml): 5961 ± 560 arb. units
- Absorption change, Decrease, 550 nm [2]: 62 ± 17 arb. units
- Absorption change, Increase, 481 nm [2]: 5466 ± 602 arb. units
- Absorption change, Decrease, 550 nm [3]: 54 ± 15 arb. units
- Absorption change, Increase, 481 nm [3]: 5913 ± 485 arb. units
- Activity relative to HSL (HSL, conditions optimized for HSL): 100%
- Increase in the absorption at 481 nm (NAG 0.002 mg/ml, HSL 5 μg, 60 min): 61 ± 9 arb. units
- Increase in the absorption at 481 nm (NAG 0.002 mg/ml, HSL 20 μg, 60 min): 194 ± 23 arb. units
- Increase in the absorption at 481 nm (NAG 0.002 mg/ml, HSL 40 μg, 60 min): 525 ± 77 arb. units
- Increase in the absorption at 481 nm (NAG 0.005 mg/ml, HSL 5 μg, 60 min): 109 ± 17 arb. units
- Increase in the absorption at 481 nm (NAG 0.005 mg/ml, HSL 20 μg, 60 min): 342 ± 58 arb. units
- Increase in the absorption at 481 nm (NAG 0.005 mg/ml, HSL 40 μg, 60 min): 1420 ± 122 arb. units
- Increase in the absorption at 481 nm (NAG 0.01 mg/ml, HSL 5 μg, 60 min): 227 ± 31 arb. units
- Increase in the absorption at 481 nm (NAG 0.01 mg/ml, HSL 20 μg, 60 min): 852 ± 77 arb. units
- Increase in the absorption at 481 nm (NAG 0.01 mg/ml, HSL 40 μg, 60 min): 2745 ± 264 arb. units
- Increase in the absorption at 481 nm (NAG 0.02 mg/ml, HSL 5 μg, 60 min): 388 ± 45 arb. units
- Increase in the absorption at 481 nm (NAG 0.02 mg/ml, HSL 20 μg, 60 min): 1758 ± 195 arb. units
- Increase in the absorption at 481 nm (NAG 0.02 mg/ml, HSL 40 μg, 60 min): 6705 ± 532 arb. units
- Increase in the absorption at 481 nm (NAG 0.05 mg/ml, HSL 5 μg, 60 min): 705 ± 61 arb. units
- Increase in the absorption at 481 nm (NAG 0.05 mg/ml, HSL 20 μg, 60 min): 3002 ± 409 arb. units
- Increase in the absorption at 481 nm (NAG 0.05 mg/ml, HSL 40 μg, 60 min): 11547 ± 912 arb. units
- Increase in the absorption at 481 nm (NAG 0.075 mg/ml, HSL 5 μg, 60 min): 1121 ± 107 arb. units
- Increase in the absorption at 481 nm (NAG 0.075 mg/ml, HSL 20 μg, 60 min): 768 ± 502 arb. units
